Measured values taken from patent US10463782B2, “Patient-based parameter generation systems for medical injection procedures” (BAYER HEALTHCARE LLC, priority 2006, dated 2019).

Test: cardiovascular CTA (Siemens Sensation 64) contrast enhancement, generated protocol vs standard biphasic protocol
Assay type: in vivo, patients
Procedure: It was expected that left and right heart contrast enhancement would be more consistent across subjects using the cardiac protocol generation system/method of the present invention as compared to typical methods of establishing protocol parameters. To evaluate the level and consistency of enhancement, cardiac CE CT data from a pilot study were analyzed. Two anatomic regions of interest (the descending aorta and the right ventricle) were identified in each subject's scan (reconstructed at 60% RR interval) via a semi-automatic segmentation algorithm. For every set of axial slices acquired at a single time point, the mean enhancement within each of the regions was computed, yielding time enhancement curves. The influence of a per-patient, contrast injection protocol having a dilution phase on right heart enhancement during cardiac CTA was also studied. Sufficient enhancement for assessment of the right heart allows for the assessment of right heart pathology. […] Standard Errors in the other groups were: uni-phasic (+/−39 HU)), bi-phasic (+/−39 HU), and fixed dilution phase (+/−28 HU). […] Left Heart Enhancement averaged 325 HU+/−80
A study of 20 patients undergoing cardiovascular CTA (Siemens Sensation 64) using injection protocols generated using the system/method of the present invention (Iopimidol 370) and 19 control subjects with a standard biphasic protocol (Iopimidol 370 contrast volume=scan duration×5 ml/s, followed by a 40 ml saline flush) was made. All values of the time enhancement curves were pooled across subjects, and the two groups were compared via unpaired t-tests. The mean enhancements for the protocols generated by the present invention and the biphasic protocols were 357±69 HU and 323±64 HU, respectively (p=10^−8). The right ventricle mean enhancements were 318±85 HU and 212±96 HU (p=10^−21).

C[C@H](O)C(=O)Nc1c(I)c(C(=O)NC(CO)CO)c(I)c(C(=O)NC(CO)CO)c1I [Iopimidol 370, Iopimidol]
right ventricle mean enhancement (FIG. 35C) (protocols generated by the present invention, 20 patients): 318±85 HU
mean enhancement (descending aorta, FIG. 35B) (protocols generated by the present invention, 20 patients, time enhancement curve values pooled across subjects): 357±69 HU
mean enhancement (descending aorta, FIG. 35B) (standard biphasic protocol (contrast volume = scan duration x 5 ml/s, then 40 ml saline flush), 19 control subjects): 323±64 HU
right ventricle mean enhancement (FIG. 35C) (standard biphasic protocol, 19 control subjects): 212±96 HU
